ChEMBL document CHEMBL1201862, “PubChem BioAssay data set” (2004)
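Assay format: 96-well plates, 48-hour exposure. Abbreviation: GI50, concentration required for 50% inhibition of growth.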 The source made the active and inactive calls. Cut-off read from the data, not from the text of the source: active = GI50 up to about 1.1 µM and inactive = higher.

Tests used:
Assay in all cases: NCI-60 cell line screen, 48 h
786-0 = test system: 786-0
SK-OV-3 = test system: SK-OV-3
U-251 = test system: U-251
NCI-H460 = test system: NCI-H460
OVCAR-5 = test system: OVCAR-5
UO-31 = test system: UO-31
HCT-15 = test system: HCT-15
RXF 393 = test system: RXF 393
OVCAR-3 = test system: OVCAR-3
LOX IMVI = test system: LOX IMVI
SK-MEL-5 = test system: SK-MEL-5
UACC-257 = test system: UACC-257
EKVX = test system: EKVX
Hs-578T = test system: Hs-578T
NCI/ADR-RES = test system: NCI/ADR-RES
HL-60 = test system: HL-60
T47D = test system: T47D
DU-145 = test system: DU-145
IGROV-1 = test system: IGROV-1
OVCAR-4 = test system: OVCAR-4
HCC 2998 = test system: HCC 2998
SF-295 = test system: SF-295
K562 = test system: K562
SW-620 = test system: SW-620
SF-539 = test system: SF-539
MDA-N = test system: MDA-N
MCF7 = test system: MCF7
RPMI-8226 = test system: RPMI-8226
ACHN = test system: ACHN
SNB-19 = test system: SNB-19
CCRF-CEM = test system: CCRF-CEM
Malme-3M = test system: Malme-3M
HCT-116 = test system: HCT-116
NCI-H522 = test system: NCI-H522
A498 = test system: A498
SNB-75 = test system: SNB-75
HT-29 = test system: HT-29
MOLT-4 = test system: MOLT-4
A549 = test system: A549
HOP-62 = test system: HOP-62
SK-MEL-28 = test system: SK-MEL-28
HOP-92 = test system: HOP-92
TK-10 = test system: TK-10
SK-MEL-2 = test system: SK-MEL-2
MDA-MB-435 = test system: MDA-MB-435
OVCAR-8 = test system: OVCAR-8
SR = test system: SR
CAKI-1 = test system: CAKI-1
M14 = test system: M14
MDA-MB-231 = test system: MDA-MB-231
NCI-H23 = test system: NCI-H23
SF-268 = test system: SF-268
PC-3 = test system: PC-3
UACC-62 = test system: UACC-62
SN12C = test system: SN12C
NCI-H226 = test system: NCI-H226
KM12 = test system: KM12
COLO 205 = test system: COLO 205

COC(=O)c1c2c(cc3c1CC1(Cc4cc5c(cc4C1)CCC5)C3)CCC2
GI50 (786-0): > 100 µM (inactive) | GI50 (SK-OV-3): > 100 µM (inactive) | GI50 (U-251): > 100 µM (inactive) | GI50 (NCI-H460): > 100 µM (inactive) | GI50 (OVCAR-5): > 100 µM (inactive) | GI50 (UO-31): > 100 µM (inactive) | GI50 (HCT-15): > 100 µM | GI50 (RXF 393): > 100 µM (inactive) | GI50 (OVCAR-3): > 100 µM (inactive) | GI50 (LOX IMVI): > 100 µM (inactive) | GI50 (SK-MEL-5): > 100 µM (inactive) | GI50 (UACC-257): > 100 µM (inactive) | GI50 (EKVX): > 100 µM (inactive) | GI50 (Hs-578T): > 100 µM (inactive) | GI50 (NCI/ADR-RES): > 100 µM (inactive) | GI50 (HL-60): > 100 µM (inactive) | GI50 (T47D): > 100 µM (inactive) | GI50 (DU-145): > 100 µM (inactive) | GI50 (IGROV-1): > 100 µM (inactive) | GI50 (OVCAR-4): > 100 µM (inactive) | GI50 (HCC 2998): > 100 µM (inactive) | GI50 (SF-295): > 100 µM (inactive) | GI50 (K562): > 100 µM (inactive) | GI50 (SW-620): > 100 µM (inactive) | GI50 (SF-539): > 100 µM (inactive) | GI50 (MDA-N): > 100 µM (inactive) | GI50 (MCF7): > 100 µM (inactive) | GI50 (RPMI-8226): > 100 µM (inactive) | GI50 (ACHN): > 100 µM (inactive) | GI50 (SNB-19): > 100 µM (inactive) | GI50 (CCRF-CEM): > 100 µM (inactive) | GI50 (Malme-3M): > 100 µM (inactive) | GI50 (HCT-116): > 100 µM (inactive) | GI50 (NCI-H522): > 100 µM (inactive) | GI50 (A498): > 100 µM (inactive) | GI50 (SNB-75): > 100 µM (inactive) | GI50 (HT-29): > 100 µM (inactive) | GI50 (MOLT-4): > 100 µM (inactive) | GI50 (A549): > 100 µM (inactive) | GI50 (HOP-62): > 100 µM (inactive) | GI50 (SK-MEL-28): > 100 µM (inactive) | GI50 (HOP-92): > 100 µM (inactive) | GI50 (TK-10): > 100 µM (inactive) | GI50 (SK-MEL-2): > 100 µM (inactive) | GI50 (MDA-MB-435): 77.4 µM (inactive) | GI50 (OVCAR-8): > 100 µM (inactive) | GI50 (SR): > 100 µM (inactive) | GI50 (CAKI-1): > 100 µM (inactive) | GI50 (M14): > 100 µM (inactive) | GI50 (MDA-MB-231): > 100 µM (inactive) | GI50 (NCI-H23): > 100 µM (inactive) | GI50 (SF-268): > 100 µM (inactive) | GI50 (PC-3): > 100 µM (inactive)

C#CCNC(Cc1c[nH]cn1)C(=O)O (centres undefined)
GI50 (UACC-62): > 100 µM (inactive) | GI50 (786-0): > 100 µM (inactive) | GI50 (SN12C): > 100 µM (inactive) | GI50 (SK-OV-3): > 100 µM (inactive) | GI50 (U-251): > 100 µM (inactive) | GI50 (NCI-H460): > 100 µM (inactive) | GI50 (OVCAR-5): > 100 µM (inactive) | GI50 (UO-31): > 100 µM (inactive) | GI50 (HCT-15): > 100 µM | GI50 (RXF 393): > 100 µM (inactive) | GI50 (OVCAR-3): > 100 µM (inactive) | GI50 (LOX IMVI): > 100 µM (inactive) | GI50 (SK-MEL-5): > 100 µM (inactive) | GI50 (UACC-257): > 100 µM (inactive) | GI50 (EKVX): > 100 µM (inactive) | GI50 (Hs-578T): > 100 µM (inactive) | GI50 (NCI/ADR-RES): > 100 µM (inactive) | GI50 (HL-60): 89.3 µM (inactive) | GI50 (T47D): > 100 µM (inactive) | GI50 (DU-145): > 100 µM (inactive) | GI50 (IGROV-1): > 100 µM (inactive) | GI50 (OVCAR-4): > 100 µM (inactive) | GI50 (SF-295): > 100 µM (inactive) | GI50 (K562): > 100 µM (inactive) | GI50 (SW-620): > 100 µM (inactive) | GI50 (SF-539): > 100 µM (inactive) | GI50 (MDA-N): > 100 µM (inactive) | GI50 (MCF7): > 100 µM (inactive) | GI50 (RPMI-8226): > 100 µM (inactive) | GI50 (ACHN): > 100 µM (inactive) | GI50 (SNB-19): > 100 µM (inactive) | GI50 (CCRF-CEM): > 100 µM (inactive) | GI50 (NCI-H226): > 100 µM (inactive) | GI50 (Malme-3M): > 100 µM (inactive) | GI50 (HCT-116): > 100 µM (inactive) | GI50 (NCI-H522): > 100 µM (inactive) | GI50 (A498): > 100 µM (inactive) | GI50 (SNB-75): > 100 µM (inactive) | GI50 (HT-29): > 100 µM (inactive) | GI50 (MOLT-4): > 100 µM (inactive) | GI50 (A549): > 100 µM (inactive) | GI50 (HOP-62): > 100 µM (inactive) | GI50 (SK-MEL-28): > 100 µM (inactive) | GI50 (HOP-92): > 100 µM (inactive) | GI50 (TK-10): > 100 µM (inactive) | GI50 (SK-MEL-2): > 100 µM (inactive) | GI50 (MDA-MB-435): > 100 µM (inactive) | GI50 (KM12): > 100 µM (inactive) | GI50 (OVCAR-8): > 100 µM (inactive) | GI50 (SR): > 100 µM (inactive) | GI50 (CAKI-1): > 100 µM (inactive) | GI50 (M14): > 100 µM (inactive) | GI50 (MDA-MB-231): > 100 µM (inactive) | GI50 (COLO 205): > 100 µM (inactive) | GI50 (SF-268): > 100 µM (inactive) | GI50 (PC-3): > 100 µM (inactive)

COC1(OC)c2no[n+]([O-])c2C(OC)(OC)c2c1no[n+]2[O-]
GI50 (UACC-62): 11.2 µM (inactive) | GI50 (786-0): 18.5 µM (inactive) | GI50 (SN12C): 20.4 µM (inactive) | GI50 (NCI-H460): 26.7 µM (inactive) | GI50 (OVCAR-5): 21.3 µM (inactive) | GI50 (UO-31): 28.2 µM (inactive) | GI50 (HCT-15): 22 µM | GI50 (RXF 393): 26.1 µM (inactive) | GI50 (OVCAR-3): 7.85 µM (inactive) | GI50 (LOX IMVI): 14.9 µM (inactive) | GI50 (SK-MEL-5): 14.9 µM (inactive) | GI50 (UACC-257): 12.5 µM (inactive) | GI50 (EKVX): 14.7 µM (inactive) | GI50 (Hs-578T): 31.4 µM (inactive) | GI50 (NCI/ADR-RES): 26.6 µM (inactive) | GI50 (HL-60): 37.3 µM (inactive) | GI50 (T47D): 21.8 µM (inactive) | GI50 (DU-145): 28.3 µM (inactive) | GI50 (IGROV-1): 21.7 µM (inactive) | GI50 (OVCAR-4): 21.9 µM (inactive) | GI50 (HCC 2998): 21 µM (inactive) | GI50 (SF-295): 35.7 µM (inactive) | GI50 (K562): 38.9 µM (inactive) | GI50 (SW-620): 17.9 µM (inactive) | GI50 (SF-539): 18.3 µM (inactive) | GI50 (MDA-N): 19.6 µM (inactive) | GI50 (MCF7): 14.1 µM (inactive) | GI50 (RPMI-8226): 35.6 µM (inactive) | GI50 (ACHN): 19.5 µM (inactive) | GI50 (SNB-19): 24.5 µM (inactive) | GI50 (CCRF-CEM): 4.19 µM (inactive) | GI50 (NCI-H226): 24.5 µM (inactive) | GI50 (Malme-3M): 14.4 µM (inactive) | GI50 (HCT-116): 11.1 µM (inactive) | GI50 (NCI-H522): 21.7 µM (inactive) | GI50 (A498): 19.1 µM (inactive) | GI50 (SNB-75): 18.3 µM (inactive) | GI50 (HT-29): 17.3 µM (inactive) | GI50 (MOLT-4): 12.4 µM (inactive) | GI50 (A549): 23.6 µM (inactive) | GI50 (HOP-62): 18.4 µM (inactive) | GI50 (SK-MEL-28): 15.7 µM (inactive) | GI50 (TK-10): 16.1 µM (inactive) | GI50 (SK-MEL-2): 21.1 µM (inactive) | GI50 (MDA-MB-435): 17.3 µM (inactive) | GI50 (KM12): 11.7 µM (inactive) | GI50 (OVCAR-8): 13.4 µM (inactive) | GI50 (SR): 4.38 µM (inactive) | GI50 (CAKI-1): 37.8 µM (inactive) | GI50 (M14): 12.3 µM (inactive) | GI50 (MDA-MB-231): 16.4 µM (inactive) | GI50 (COLO 205): 12.9 µM (inactive) | GI50 (NCI-H23): 11.4 µM (inactive) | GI50 (SF-268): 25.7 µM (inactive) | GI50 (PC-3): 25.3 µM (inactive)
